# In patent US5053392A, “Novel arginine, glycine, aspartic acid derivatives as platelet-aggregation inhibitors” (Rhone-Poulenc Rorer Pharmaceuticals Inc., priority 1989, dated 1991):
# Non-standard residues stand in square brackets, D forms with d. Residues, ends and D or L forms follow the SMILES beside them. ξ: configuration not given here. Aze = O=C(O)[C@@H]1CCN1; ξPip = O=C(O)C1CCCCN1; Ava = NCCCCC(=O)O
# Experiments:
# Human Platelets = experiment: Inhibition of fibrinogen-mediated platelet aggregation; assay type: cell-based; details: for IC50: thrombin-activated human platelets, rate of aggregation
# Experimental: II. Inhibition of Fibrinogen - Mediated Platelet Aggregation, which is essentially based on the method described in Blood, Vol. 66, No. 4, October 1985, pp. 846-952, and is as follows.
# Human Platelets were isolated from freshly drawn whole blood and were suspended in 0.14 mol/L NaCl, 2.7 mmol/L […], 12 mmol/L NaHCO3, 0.42 mmol/L Na2 HPO4, 0.55 mmol/L glucose, and 5 mmol/L Hepes, pH 7.35 at 2×10^8 platelets/ml. The suspension was incubated at 37° C. An aliquot of 0.4 ml of platelet suspension was activated by human thrombin at a final concentration of 2 μg/ml of thrombin for one minute. After one minute the reaction was stopped by a thrombin inhibitor. Serial dilution of the compound being tested was then added to the activated platelet, the reaction was allowed to proceed for one minute, followed by the addition of human fibrinogen at a final concentration of […] of fibrinogen. Platelet aggregation was then recorded by an aggregometer. Rate of aggregation was used to calculate IC50.
# [1] = test system: thrombin-stimulated platelets; experiment: Inhibition of radiolabeled (125I) fibrinogen binding assay; details: for IC50: thrombin-stimulated platelets, read-out: Inhibition of 125I-Fibrinogen Binding to Platelet IC50; for Inhibition of 125I-Fibrinogen Binding to Platelet, inhibition at 50 μg/ml: at 50 μg/ml (footnote *)
# Experimental: I. Inhibition of Radiolabeled (125I) Fibrinogen Binding Assay, which is essentially based on the method described in Proc Natl. Acad. Sci. U.S.A. Vol. 83, pp. 5708-5712, August 1986, and is as follows.
# Platelets are washed free of plasma constitutes by the albumin density-gradient technique. In each experimental mixture platelets in modified Tyrode's buffer are stimulated with human α-thrombin at 22°-25° C. for 10 minutes (3.125×10" platelets per liter and thrombin at […]). Hirudin is then added at a 25-fold excess for 5 minutes before addition of the radiolabeled ligand and any competing ligand. After these additions, the final platelet count in the mixture is […], bound and free ligand are separated by centrifuging 50 μl of the mixture through 300 μl of 20% sucrose at 12,000×g for 4 minutes. The platelet pellet is then separated from the rest of the mixture to determine platelet-bound radioactivity. Nonspecific binding is measured in mixtures containing an excess of unlabeled ligand. When binding curves are analyzed by Scatchard analysis, nonspecific binding is derived as a fitted parameter from the binding isotherm by means of a computerized program. To determine the concentration of each inhibitory compound necessary to inhibit 50% of fibrinogen binding to thrombin-stimulated platelets (IC50), each compound is tested at 0.176 μgmol/liter (60 μg/ml). The IC50 is derived by plotting residual fibrinogen binding against the logarithm of the sample compound's concentration.
IC50 (Human Platelets),IC50 [1],SMILES,Inhibition of Fibrinogen Mediated Platelet Aggregation % inhibition at 100 μM (Human Platelets),"Inhibition of 125I-Fibrinogen Binding to Platelet, inhibition at 50 μg/ml [1]"
13 µM,13 µM,CC(C)[C@H](NC(=O)[C@H](CC(=O)O)NC(=O)[C@@H]1CCN1C(=O)[C@@H](N)CCCNC(=N)N)C(=O)O [N-(L-arqinyl)-azetidine-(2S)-carboxyl-Asp-Val] (H-R[Aze]DV-OH),91%,–
59 µM,> 200 µM,CC(C)[C@H](NC(=O)[C@H](CC(=O)O)NC(=O)[C@@H]1CCN1C(=O)CCCCN)C(=O)O [N-(5-aminopentanoyl)-azetidin-(2S)-carboxyl-Asp-Val] (H-[Ava][Aze]DV-OH),74%,–
28.6 µM,–,CC(C)[C@H](NC(=O)[C@H](CC(=O)O)NC(=O)C1CCCCN1C(=O)[C@@H](N)CCCNC(=N)N)C(=O)O (stereo partly drawn) [N-[1-(L-arginyl)piperidin-2-yl-carbonyl]-L-aspartyl-L-valine] (H-R[ξPip]DV-OH),73%,* (Inhibited less than 50% at 50 μg/ml)
> 100 µM,–,"CC(C)[C@H](NC(=O)[C@H](CC(=O)O)NC(=O)[C@@H]1CCCN1C(=O)[C@@H](N)CCCNC(=N)N)C(=O)O [L-arginyl-L-prolyl-L-aspartyl-L-valine, L-Arginyl-L-prolyl-L-aspartyl-L-valine] (H-RPDV-OH)",25%,* (Inhibited less than 50% at 50 μg/ml)
